Assay results published in patent US20260053834A1, “COVALENT MODIFIERS OF AKT1 AND USES THEREOF” (Terremoto Biosciences, Inc., priority 2023, published 2026).

What was measured:
[1] = biological target: T1, AKT2 (Homo sapiens, UniProt P31751); experiment: Live cell target engagement by NanoBRET competitive probe displacement, AKT2; type: binding; conditions: transfected HEK293 cells, 2 h at 37° C., read-out: AKT2 IC50: GeoMean IC50
T1 construct: expressed in transfected cells; host or cells: HEK293

[2] = system: LAPC4 prostate cancer cells, which express the AKT1 E17K allele; experiment: Antiproliferative effects in LAPC4 cells (CellTiter Glo, 72 h); type: cell-based; conditions: Homo sapiens, LAPC4, 72 h, read-out: LAPC4 proliferation IC50: GeoMean IC50
Method in brief: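 Cells grown in IMDM with 12% FBS, seeded at 1,000 cells/well and treated with compound dilutions in DMSO for 72 h. Intracellular ATP read by luminescence. IC50 from a log(inhibitor) vs. response Hill fit.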

[3] = biological target: T2, AKT1 WT (Homo sapiens, UniProt P31749); experiment: Live cell target engagement by NanoBRET competitive probe displacement, AKT1 WT; type: binding; conditions: transfected HEK293 cells, 2 h at 37° C., read-out: AKT1 WT IC50: GeoMean IC50
T2 construct: expressed in transfected cells; host or cells: HEK293

[4] = biological target: T3, AKT1 E17K (Homo sapiens, UniProt P31749, E17K); experiment: Live cell target engagement by NanoBRET competitive probe displacement, AKT1 E17K; type: binding; conditions: transfected HEK293 cells, 2 h at 37° C., read-out: AKT1 E17K IC50: GeoMean IC50
T3 construct: expressed in transfected cells; host or cells: HEK293
T3 sequence (P31749 whole entry E17K): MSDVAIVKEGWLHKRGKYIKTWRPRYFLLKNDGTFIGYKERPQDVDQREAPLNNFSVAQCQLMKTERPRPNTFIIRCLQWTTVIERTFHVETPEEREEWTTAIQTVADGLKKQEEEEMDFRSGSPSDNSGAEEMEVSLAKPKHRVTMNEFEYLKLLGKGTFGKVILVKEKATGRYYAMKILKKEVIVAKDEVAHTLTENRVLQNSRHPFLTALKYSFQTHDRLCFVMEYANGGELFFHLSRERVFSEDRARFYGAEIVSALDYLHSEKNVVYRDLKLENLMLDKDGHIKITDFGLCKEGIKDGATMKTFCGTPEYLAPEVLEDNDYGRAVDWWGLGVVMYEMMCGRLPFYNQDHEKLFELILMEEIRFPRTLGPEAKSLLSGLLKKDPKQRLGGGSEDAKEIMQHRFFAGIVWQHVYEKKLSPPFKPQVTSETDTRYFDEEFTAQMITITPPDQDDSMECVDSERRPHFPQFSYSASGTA

T2 sequence (P31749 whole entry): as the sequence (P31749 whole entry E17K) above, with K17E counted along it
T1 sequence (P31751 whole entry): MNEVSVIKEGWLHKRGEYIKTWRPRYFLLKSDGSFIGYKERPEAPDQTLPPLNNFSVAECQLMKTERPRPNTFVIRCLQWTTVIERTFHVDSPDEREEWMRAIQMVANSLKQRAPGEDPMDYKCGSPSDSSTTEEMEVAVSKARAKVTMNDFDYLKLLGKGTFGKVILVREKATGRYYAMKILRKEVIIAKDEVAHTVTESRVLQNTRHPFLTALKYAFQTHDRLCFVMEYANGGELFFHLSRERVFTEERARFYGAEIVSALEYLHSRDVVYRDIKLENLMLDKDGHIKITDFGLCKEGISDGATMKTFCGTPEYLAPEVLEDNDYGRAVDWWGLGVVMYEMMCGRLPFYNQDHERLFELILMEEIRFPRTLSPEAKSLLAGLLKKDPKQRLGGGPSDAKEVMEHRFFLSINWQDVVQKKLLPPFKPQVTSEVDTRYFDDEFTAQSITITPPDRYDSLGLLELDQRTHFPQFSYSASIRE

| SMILES | IC50 [1] | IC50 [2] | IC50 [3] | IC50 [4] |
| --- | --- | --- | --- | --- |
| Nc1ncccc1-c1nc2ccc(NC3CC3)nc2n1-c1ccc2c(c1)CC[C@@H]2NC(=O)c1ccc(O)c(C=O)c1 [Example 87, (S)—N-(5-(2-(2-aminopyridin-3-yl)-5-(cyclopropylamino)-3H-imidazo[4,5-b]pyridin-3-yl)-2,3-dihydro-1H-inden-1-yl)-3-formyl-4-hydroxybenzamide] | ≥ 2000 nM | 100 to 2000 nM | 100 to 2000 nM | 10 to 100 nM |
| Nc1ncccc1-c1nc2ccc(-c3cscn3)nc2n1-c1ccc2c(c1)CC[C@@H]2NC(=O)c1ccc(O)c(C=O)c1 [Example 88, N-[(1S)-5-[2-(2-aminopyridin-3-yl)-5-(1,3-thiazol-4-yl)imidazo[4,5-b]pyridin-3-yl]-2,3-dihydro-1H-inden-1-yl]-3-formyl-4-hydroxybenzamide] | 100 to 2000 nM | 10 to 100 nM | 10 to 100 nM | 10 to 100 nM |
| Nc1ncccc1-c1nc2ccc(-c3ccccc3)nc2n1-c1ccc2c(c1)CC[C@@H]2NC(=O)c1ccc(O)c(C=O)n1 [Example 89, (S)—N-(5-(2-(2-aminopyridin-3-yl)-5-phenyl-3H-imidazo[4,5-b]pyridin-3-yl)-2,3-dihydro-1H-inden-1-yl)-6-formyl-5-hydroxypicolinamide] | 100 to 2000 nM | 100 to 2000 nM | 10 to 100 nM | 100 to 2000 nM |
| N#Cc1cnn(-c2ccc3nc(-c4cccnc4N)n(-c4ccc5c(c4)CC[C@@H]5NC(=O)c4ccc(O)c(C=O)c4)c3n2)c1 [Example 90, N-[(1S)-5-[2-(2-aminopyridin-3-yl)-5-(4-cyanopyrazol-1-yl)imidazo[4,5-b]pyridin-3-yl]-2,3-dihydro-1H-inden-1-yl]-3-formyl-4-hydroxybenzamide] | 100 to 2000 nM | 100 to 2000 nM | 100 to 2000 nM | 10 to 100 nM |
| Nc1ncccc1-c1nc2ccc(-n3nccn3)nc2n1-c1ccc2c(c1)CC[C@@H]2NC(=O)c1ccc(O)c(C=O)c1 [Example 91, N-[(1S)-5-[2-(2-aminopyridin-3-yl)-5-(1,2,3-triazol-2-yl)imidazo[4,5-b]pyridin-3-yl]-2,3-dihydro-1H-inden-1-yl]-3-formyl-4-hydroxybenzamide] | 100 to 2000 nM | 10 to 100 nM | 10 to 100 nM | 10 to 100 nM |
| Nc1ncccc1-c1nc2ccc(-n3ccnn3)nc2n1-c1ccc2c(c1)CC[C@@H]2NC(=O)c1ccc(O)c(C=O)c1 [Example 92, N-[(1S)-5-[2-(2-aminopyridin-3-yl)-5-(1,2,3-triazol-1-yl)imidazo[4,5-b]pyridin-3-yl]-2,3-dihydro-1H-inden-1-yl]-3-formyl-4-hydroxybenzamide] | 100 to 2000 nM | 100 to 2000 nM | 10 to 100 nM | 10 to 100 nM |
| Nc1ncccc1-c1nc2ccc(-n3cccn3)nc2n1-c1ccc2c(c1)CC[C@@H]2NC(=O)c1cc(Cl)c(O)c(C=O)c1 [Example 93, N-[(1S)-5-[2-(2-aminopyridin-3-yl)-5-(pyrazol-1-yl)imidazo[4,5-b]pyridin-3-yl]-2,3-dihydro-1H-inden-1-yl]-3-chloro-5-formyl-4-hydroxybenzamide] | 100 to 2000 nM | 100 to 2000 nM | 10 to 100 nM | 10 to 100 nM |
| Nc1ncccc1-c1nc2ccc(-n3cc(C(F)F)cn3)nc2n1-c1ccc2c(c1)CC[C@@H]2NC(=O)c1ccc(O)c(C=O)c1 [Example 94, N-[(1S)-5-[2-(2-aminopyridin-3-yl)-5-[4-(difluoromethyl)pyrazol-1-yl]imidazo[4,5-b]pyridin-3-yl]-2,3-dihydro-1H-inden-1-yl]-3-formyl-4-hydroxybenzamide] | 100 to 2000 nM | 100 to 2000 nM | 100 to 2000 nM | 10 to 100 nM |
| Cc1ccn(-c2ccc3nc(-c4cccnc4N)n(-c4ccc5c(c4)CC[C@@H]5NC(=O)c4ccc(O)c(C=O)c4)c3n2)n1 [Example 95, N-[(1S)-5-[2-(2-aminopyridin-3-yl)-5-(3-methylpyrazol-1-yl)imidazo[4,5-b]pyridin-3-yl]-2,3-dihydro-1H-inden-1-yl]-3-formyl-4-hydroxybenzamide] | 100 to 2000 nM | 10 to 100 nM | 10 to 100 nM | 10 to 100 nM |
| Nc1ncccc1-c1nc2ccc(-n3ccc(Cl)n3)nc2n1-c1ccc2c(c1)CC[C@@H]2NC(=O)c1ccc(O)c(C=O)c1 [Example 96, (S)—N-(5-(2-(2-aminopyridin-3-yl)-5-(3-chloro-1H-pyrazol-1-yl)-3H-imidazo[4,5-b]pyridin-3-yl)-2,3-dihydro-1H-inden-1-yl)-3-formyl-4-hydroxybenzamide] | 100 to 2000 nM | 100 to 2000 nM | 100 to 2000 nM | 10 to 100 nM |
| Nc1ncccc1-c1nc2ccc(-n3cncn3)nc2n1-c1ccc2c(c1)CC[C@@H]2NC(=O)c1ccc(O)c(C=O)c1 [Example 97, N-[(1S)-5-[2-(2-aminopyridin-3-yl)-5-(1,2,4-triazol-1-yl)imidazo[4,5-b]pyridin-3-yl]-2,3-dihydro-1H-inden-1-yl]-3-formyl-4-hydroxybenzamide] | 100 to 2000 nM | 100 to 2000 nM | 100 to 2000 nM | 10 to 100 nM |
| Nc1ncccc1-c1nc2ccc(-n3cccn3)nc2n1-c1ccc2c(c1)CC[C@@H]2NC(=O)c1cc(C=O)c(O)c(C(F)(F)F)c1 [Example 100, N-[(1S)-5-[2-(2-aminopyridin-3-yl)-5-(pyrazol-1-yl)imidazo[4,5-b]pyridin-3-yl]-2,3-dihydro-1H-inden-1-yl]-3-formyl-4-hydroxy-5-(trifluoromethyl)benzamide] | 100 to 2000 nM | 100 to 2000 nM | 100 to 2000 nM | 10 to 100 nM |
| C#Cc1cc(C(=O)N[C@H]2CCc3cc(-n4c(-c5cccnc5N)nc5ccc(-n6cccn6)nc54)ccc32)cc(C=O)c1O [Example 101, N-[(1S)-5-[2-(2-aminopyridin-3-yl)-5-(pyrazol-1-yl)imidazo[4,5-b]pyridin-3-yl]-2,3-dihydro-1H-inden-1-yl]-3-ethynyl-5-formyl-4-hydroxybenzamide] | 100 to 2000 nM | 100 to 2000 nM | 10 to 100 nM | 10 to 100 nM |
| CC(=O)c1cc(C(=O)N[C@H]2CCc3cc(-n4c(-c5cccnc5N)nc5ccc(-n6cccn6)nc54)ccc32)cc(C=O)c1O [Example 102, (S)-3-acetyl-N-(5-(2-(2-aminopyridin-3-yl)-5-(1H-pyrazol-1-yl)-3H-imidazo[4,5-b]pyridin-3-yl)-2,3-dihydro-1H-inden-1-yl)-5-formyl-4-hydroxybenzamide] | 10 to 100 nM | 100 to 2000 nM | 10 to 100 nM | 10 to 100 nM |
| Nc1ncccc1-c1nc2ccc(-c3cnccn3)nc2n1-c1ccc2c(c1)CC[C@@H]2NC(=O)c1cc(C=O)c(O)c(F)c1F [Example 103, N-[(1S)-5-[2-(2-aminopyridin-3-yl)-5-(pyrazin-2-yl)imidazo[4,5-b]pyridin-3-yl]-2,3-dihydro-1H-inden-1-yl]-2,3-difluoro-5-formyl-4-hydroxybenzamide] | 100 to 2000 nM | 10 to 100 nM | 10 to 100 nM | 10 to 100 nM |
| CN(C)C(=O)Nc1ccc(C(=O)N[C@H]2CCc3cc(-n4c(-c5cccnc5N)nc5ccc(-n6cccn6)nc54)ccc32)cc1C=O [Example 104, N-[(1S)-5-[2-(2-aminopyridin-3-yl)-5-(pyrazol-1-yl)imidazo[4,5-b]pyridin-3-yl]-2,3-dihydro-1H-inden-1-yl]-4-[(dimethylcarbamoyl)amino]-3-formylbenzamide] | 100 to 2000 nM | < 10 nM | 10 to 100 nM | < 10 nM |
